Measured values: patent US4920215A, “Antibiotic produced by fermentation” (Pfizer Inc., priority 1987, dated 1990)

System: rumen fluid
Test: In vitro rumen technique, propionic acid production
Conditions: 16 h, pH 6.8, read-out: increase of propionic acid over the control

`CC[C@@H](C(=O)[C@@H](C)[C@@H](O)[C@H](C)[C@@H]1O[C@@H]([C@@H](CC)C(=O)O)CC[C@@H]1C)[C@H]1O[C@]2(C=C[C@@H](O)[C@]3(CC[C@@](C)([C@H]4CC[C@](O)(CC)[C@H](C)O4)O3)O2)[C@H](C)C[C@@H]1C` [salinomycin] was tested, and the activation at 10 µg/mL was about 61%.
